For the assay, the system named is ROS-1 osteosarcoma. The assay is described as follows: Tumor growth of ROS-1 osteosarcoma in hindlimb after ILP or intra-tumoral injection. The conditions noted are these: ROS-1, ILP 15 minutes, 1.10^9 iu vector plus 50 μg TNFα, 40 μg melphalan or 200 μg doxorubicin per rat. The format is in vivo.
Description: The rapidly growing ROS-1 osteosarcoma originated spontaneously in the tibia of a Wag/Rij rat (Barendsen et al. (1987)). The ROS-1 was implanted subcutaneously in the flank of donor Wag/Rij rats and passaged serially. The ROS-1 has a tumor doubling time of 5 days.
Fragments of the BN175 or ROS-1 (osteo)sarcoma were subcutaneously implanted into the right hindlimb of the experimental animals just above the ankle. The tumor size was measured regularly by caliper measurement in two dimensions. When the tumor reached a volume of 180-524 mm^3 (diameter between 7 and 10 mm) an isolated limb perfusion (ILP) with the recombinant adenoviral vector was performed. As a control, tumor bearing rats underwent ILP without the addition of said recombinant adenoviral vectors (termed sham ILP). An other group of tumor bearing rats underwent a direct intra-tumor injection with said recombinant adenoviral vector. The tumor volume was between 180-524 mm^3). After ILP or direct intra-tumor injection the tumor size was measured every (mon-fri)day.
Surgical procedures were performed under Hypnorm anaesthesia. […] After an incision parallel to the inguinal ligament the femoral and vein were approached and cannulated with silastic tubing (0.30 mm ID, 0.64 mm OD; 0.64 mm, 1.19 OD, respectively, Degania Silicone, Degania Bet, Israel). Collaterals were temporarily occluded by the application of a tourniquet around the groin, which was fixed to the inguinal ligament. An oxygenation reservoir and a roller pump (Masterflex) were included in the vascularly isolated circuit, which was, initially, perfused with haemaccel (Behring Pharma, Amsterdam, The Netherlands) for 3 minutes at a flow speed of 2 ml/min to wash out the blood. After the first wash out step, recirculation was performed with recombinant adenoviruses (50 μl-1 ml, containing approximately 10^9 infectious units (i.u.)) dissolved in 2.5-3.5 ml Haemaccel at the same flow rate for a time period ranging from 5 to 30 minutes. Followed by a second perfusion step of 5 minutes to wash out the non-bound virus with Haemaccel. […]
In the case of `COc1cccc2c1C(=O)c1c(O)c3c(c(O)c1C2=O)C[C@@](O)(C(=O)CO)C[C@@H]3O[C@H]1C[C@H](N)[C@H](O)[C@H](C)O1` [doxorubicin], the “effect of addition to the IG.Ad.CMV.rIL-3 perfusion on the antitumor response” value (shortened to “effect of addition”) is reported as “does not influence the antitumor response”. On to `N[C@@H](Cc1ccc(N(CCCl)CCCl)cc1)C(=O)O` [melphalan], for which the “effect of addition” value was “does not influence the antitumor response”. In the case of TNFα, the “effect of addition” value was “does not influence the antitumor response”.

The values are drawn from patent US6495131B1, “Interleukin-3 gene therapy for cancer” (priority 1998, dated 2002).
